The values that follow come from PMC5234717 (Journal of Lipid Research, 2016).

In experiment [1] the target is T1, S1PL2021 (Burkholderia pseudomallei, UniProt Q63IP8).
T1 construct: gene BPSS2021

Experiment [2] has as its target T1, S1PL2021. The source holds these as a separate data set.

T1 sequence (Q63IP8 21-493 limits assumed): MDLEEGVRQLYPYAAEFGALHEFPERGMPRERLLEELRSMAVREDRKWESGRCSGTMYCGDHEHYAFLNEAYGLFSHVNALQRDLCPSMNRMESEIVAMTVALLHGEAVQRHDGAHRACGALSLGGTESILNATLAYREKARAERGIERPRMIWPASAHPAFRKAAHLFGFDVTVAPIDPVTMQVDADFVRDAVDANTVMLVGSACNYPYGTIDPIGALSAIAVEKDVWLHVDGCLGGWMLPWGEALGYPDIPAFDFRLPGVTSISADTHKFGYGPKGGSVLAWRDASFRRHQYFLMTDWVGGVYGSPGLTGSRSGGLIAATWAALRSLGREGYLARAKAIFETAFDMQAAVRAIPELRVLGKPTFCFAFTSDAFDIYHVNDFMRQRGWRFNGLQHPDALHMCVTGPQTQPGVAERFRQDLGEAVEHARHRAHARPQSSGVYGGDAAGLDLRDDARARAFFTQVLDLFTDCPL

Turning to `Cc1ncc(COP(=O)(O)O)c(C=O)c1O` [PLP], the “X-ray crystal structure, 2.1 Å” value at S1PL2021 [1] is given as “dimer of S1PL with the PLP cofactor present as an internal aldimine with residue K271”. Regarding `CCCCCCCCCCCCC/C=C/[C@@H](O)[C@@H](N)CO` [D-erythro sphingosine], the “UV-vis spectroscopy of PLP” value at S1PL2021 [2] is “S1PL2021 could also bind the nonphosphorylated substrate, D-erythro sphingosine”.
